Consider four compounds from patent US11040026B2, “Muscarinic M1 receptor positive allosteric modulators” (SUVEN LIFE SCIENCES LIMITED, priority 2016, dated 2021).

The target of data set [1] is T1, muscarinic M1 receptor (Homo sapiens, UniProt P11229).
T1 sequence (P11229 1-460): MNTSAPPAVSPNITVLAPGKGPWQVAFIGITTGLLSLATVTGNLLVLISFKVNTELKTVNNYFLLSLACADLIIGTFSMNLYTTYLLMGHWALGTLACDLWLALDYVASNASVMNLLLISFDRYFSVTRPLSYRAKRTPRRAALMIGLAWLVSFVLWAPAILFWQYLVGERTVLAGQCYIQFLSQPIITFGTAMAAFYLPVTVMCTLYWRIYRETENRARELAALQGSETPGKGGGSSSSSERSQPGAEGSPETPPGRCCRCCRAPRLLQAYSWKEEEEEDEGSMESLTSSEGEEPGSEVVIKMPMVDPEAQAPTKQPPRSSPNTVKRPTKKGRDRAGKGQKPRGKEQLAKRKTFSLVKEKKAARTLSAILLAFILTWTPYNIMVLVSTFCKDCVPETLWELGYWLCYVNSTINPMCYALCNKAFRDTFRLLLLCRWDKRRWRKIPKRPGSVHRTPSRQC
The data set is described as follows: Allosteric potency EC50 for muscarinic M1 receptor (CHO pCRE-Luc reporter assay). The following applies: in presence of EC20 of acetylcholine; CHO cells, luciferase reporter, 4 hours. Format: cell-based. Summed up: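 Stable CHO line with recombinant human M1 and cAMP-response-element luciferase reporter, serum-starved overnight. Test compounds at increasing concentrations added with an EC20 of acetylcholine, 4 h at 37 °C; luminescence read after lysis. EC50 = concentration giving 50% stimulation of luciferase activity in the presence of EC20 acetylcholine.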
(In general: Reporter assays use an easily measured gene product as a stand-in for the process of interest.)

Data set [2] is described as follows: Rodent pharmacokinetic study. Format: in vivo, Male Wistar rats. The following applies: rat; for AUC(0-t) / clearance / half-life / Cmax: male, Wistar, plasma; for F: oral (gavage) 3 mg/kg vs intravenous 1 mg/kg. As for the experimental part: Rodent Pharmacokinetic Study
Male Wistar rats (260±50 grams) were used as experimental animals. Animals were housed individually in polypropylene cage. Two days prior to study, male Wistar rats were anesthetized with isoflurane for surgical placement of jugular vein catheter. Rats were randomly divided for oral (3 mg/kg) and intravenous (1 mg/kg) dosing (n=3/group) and fasted overnight before oral dosing (p.o.). However, rats allocated to intravenous dosing food and water was provided ad libitum.
At pre-determined point, blood was collected through jugular vein and replenished with an equivalent volume of normal saline. Collected blood was transferred into a labeled eppendorf tube containing 10 μL of heparin as an anticoagulant. Typically blood samples were collected at following time points: 0.08, 0.25, 0.5, 1, 2, 4, 6, 8, and 24 hours post dose. Blood was centrifuged at 4000 rpm for 10 minutes. Plasma was separated and stored frozen at −80° C. until analysis. The concentrations of the test compounds were quantified in plasma by qualified LC-MS/MS method using suitable extraction technique. The test compounds were quantified in the calibration range around 1-1000 ng/mL in plasma. Study samples were analyzed using calibration samples in the batch and quality control samples spread across the batch.
Pharmacokinetic parameters Cmax, AUCt, T1/2, Clearance and Bioavailability (F) were calculated by non-compartmental model using standard non-compartmental model by using Phoenix WinNonlin 6.0.4 version Software package.

Data set [3] is described as follows: Rodent brain penetration study. It is filed as in vivo, Male Wistar rats. Particulars: male, Wistar, brain and plasma, po; rat, 3 mg/kg, p.o., brain-plasma ratio; read-out: Single dose Rat Brain Penetration (Cb/Cp) at 3 mg/kg, p.o. As for the experimental part: Rodent Brain Penetration Study
Male Wistar rats (260±40 grams) were used as experimental animals. Three animals were housed in each cage. Animals were given water and food ad libitum throughout the experiment and maintained on a 12 hours light/dark cycle.
Brain penetration was determined in discrete manner in rats. One day prior to dosing day, male Wistar rats were acclimatized and randomly grouped according to their weight. At each time point (0.50, 1 and 2 hours) n=3 animals were used.
The test compounds were suitably preformulated and administered orally at (free base equivalent) 3 mg/kg. Blood samples were removed via cardiac puncture by using isoflurane anesthesia. The animals were sacrificed to collect brain tissue. Plasma was separated and brain samples were homogenized and stored frozen at −20° C. until analysis. The concentrations of the test compounds in plasma and brain were determined using LC-MS/MS method.
The test compounds were quantified in plasma and brain homogenate by qualified LC-MS/MS method using suitable extraction technique. The test compounds were quantified in the calibration range of 1-500 ng/mL in plasma and brain homogenate. Study samples were analyzed using calibration samples in the batch and quality control samples spread across the batch. Extent of brain-plasma ratio (Cb/Cp) was calculated

Data set [4] concerns Male Wistar rats. As to the kind of experiment: Object recognition task model. Format: in vivo. Particulars: rat, p.o.; for Exploration time mean ± S.E.M, Familiar object / Exploration time mean ± S.E.M, Novel object: choice trial 24 hours after T1. As for the experimental part: Object Recognition Task Model
Male Wistar rats (8-10 weeks old) were used as experimental animals. Four animals were housed in each cage. Animals were kept on 20% food deprivation from a day prior to experimentation. Water was provided ad libitum throughout the experiment. Animals were maintained on a 12 hours light/dark cycle in temperature and humidity controlled room. The experiment was carried out in an circular or square arena made up of acrylic. Rats were habituated to individual arenas for up to 1 hour in the absence of any objects on day 1.
One group of 12 rats received vehicle and another set of animals received test compounds, before familiar (T1) and choice (T2) trials. During the familiarization phase, (T1), the rats were placed individually in the arena for 3 minutes, in which two identical objects (a1 and a2) were positioned 10 cm from the wall. 24 hours after T1, trial for long-term memory test was performed. The same rats were placed in the same arena as they were placed in T1 trial. During the choice phase (T2) rats were allowed to explore the arena for 3 minutes in presence of a copy of familiar object (a3) and one novel object (b). During the T1 and T2 trial, explorations of each object (defined as sniffing, licking, chewing or having moving vibrissae whilst directing the nose towards the object at a distance of less than 1 cm) were recorded using stopwatch.
T1 is the total time spent exploring the familiar objects (a1+a2).
T2 is the total time spent exploring the familiar object and novel object (a3+b).
The object recognition test was performed as described in Behav. Brain Res., 1988, 31, 47-59.

For data set [5], the system named is Male Wistar rats. The data set is described as follows: Object recognition task model (combination study). It is filed as in vivo. Particulars: rat, combination (co-treatment) with donepezil; FIG. 1. As for the experimental part: Object Recognition Task Model (Combination Study)
The cognition enhancing properties of compounds of this invention were estimated by using this model.
Male Wistar rats (8-10 weeks old) were used as experimental animals. Four animals were housed in each cage. Animals were kept on 20% food deprivation from a day prior to experimentation. Water was provided ad libitum throughout the experiment. Animals were maintained on a 12 hours light/dark cycle in temperature and humidity controlled room. The experiment was carried out in an open field made up of acrylic. Rats were habituated to individual arenas (open field) for 20 minutes in the absence of any objects on day 1.
One group of 12 rats received vehicle and another set of animals received compound of the formula (I) or Donepezil or compound of formula (I) and Donepezil, before the familiar (T1) and choice (T2) trials. During the familiarization phase, (T1), the rats were placed individually in the arena for 3 minutes, in which two identical objects (a1 and a2) were positioned 10 cm from the wall. 24 hours after T1, trial for long-term memory test was performed. […] During the T1 and T2 trial, explorations of each object (defined as sniffing, licking, chewing or having moving vibrissae whilst directing the nose towards the object at a distance of less than 1 cm) were recorded using stopwatch. […]

The target in data set [6] is T1, muscarinic M1 receptor. The following applies: literature report; cited from earlier work.
For data set [7] the following is noted: cited from earlier work.

What is called EC50 is the concentration giving half of the maximal effect. One may read the AUC(0-t) as the area under the concentration-time curve up to a stated or last time point. For orientation: clearance means the volume of plasma or blood freed of the substance per unit of time. Higher therefore signals a high capacity for elimination. In general, half-life refers to how long it takes for the measured level to halve. In general, Cmax refers to the maximum level reached in the sampled fluid or tissue.

Molecules are shown by their SMILES.

For `Cn1ccc2c(Cc3ccnc(F)c3)cc(C(=O)N[C@H]3CCCC[C@@H]3O)nc21` [Example 1, N-[(1S,2S)-2-Hydroxycyclohexyl]-4-(2-fluoropyridin-4-ylmethyl)-1-methyl-1H-pyrrolo[2,3-b]pyridine-6-carboxamide], at muscarinic M1 receptor [1], the EC50 was 1480 nM. In data set [2] (intravenous (bolus), 1 mg/kg), this compound showed an AUC(0-t) of 796 ± 41 ng·h/mL, a clearance of 34 ± 3 mL/min/kg and a half-life of 1.3 ± 0.3 h. Moreover, in data set [2] (oral (gavage), 3 mg/kg), the AUC(0-t) came to 875 ± 215 ng·h/mL, the highest concentration (Cmax) worked out at 373 ± 53 ng/mL and the half-life is 1.3 ± 0.2 h. For the same compound, in data set [2], the F came out at 59 ± 14%. Besides, the Kp in data set [3] came out at 0.33 ± 0.02. Also, in the data set on Male Wistar rats [4] (3 mg/kg), the Inference entry is reported as “Active”; the “Exploration time mean ± S.E.M, Familiar object” value turned out to be 12.67 ± 0.95 s; the “Exploration time mean ± S.E.M, Novel object” value is 17.98 ± 1.77 s. The “Procognitive effect in object recognition task” value with Male Wistar rats [5] was “Procognitive effects were observed”.

Take `CN1CCOc2c(Cc3ccc(F)cc3)cc(C(=O)N[C@H]3CCCC[C@@H]3O)nc21` [Example 120, N-[(1S,2S)-2-Hydroxycyclohexyl]-8-(4-fluorobenzyl)-4-methyl-2H-pyrido[3,2-b][1,4]oxazine-6-carboxamide]: the concentration giving a half-maximal response (EC50) at muscarinic M1 receptor [1] came to 407 nM. Besides, in data set [2] (intravenous (bolus), 1 mg/kg), the AUC(0-t) was 593 ± 79 ng·h/mL, the clearance stood at 28 ± 4 mL/min/kg and the half-life was 1.2 ± 0.3 h. In data set [2] (oral (gavage), 3 mg/kg), the AUC(0-t) is 234 ± 76 ng·h/mL, the highest concentration (Cmax) was 69 ± 12 ng/mL and the half-life was 3.5 ± 3.3 h. The compound also displayed a F in data set [2] of 13 ± 4%. Moreover, the Kp in data set [3] turned out to be 1.37 ± 0.1. Further, in the data set on Male Wistar rats [4] (10 mg/kg), the Inference result is recorded as “Active”; the “Exploration time mean ± S.E.M, Familiar object” value is 10.48 ± 1.02 s; the “Exploration time mean ± S.E.M, Novel object” value came out at 15.43 ± 1.23 s.

As to `Cn1ccc2c(Cc3ccc(Cl)nc3)cc(C(=O)N[C@H]3CCCC[C@@H]3O)nc21` [Example 18, N-[(1S,2S)-2-Hydroxycyclohexyl]-4-(2-chloropyridin-5-ylmethyl)-1-methyl-1H-pyrrolo[2,3-b]pyridine-6-carboxamide], the EC50 on muscarinic M1 receptor [1] came out at 38 nM. Also, in data set [2] (intravenous (bolus), 1 mg/kg), the exposure AUC(0-t) amounted to 853 ± 109 ng·h/mL, the clearance came out at 20 ± 3 mL/min/kg and the half-life was 1.3 ± 0.2 h. Also, in data set [2] (oral (gavage), 3 mg/kg), the AUC(0-t) amounted to 2710 ± 769 ng·h/mL, the peak level (Cmax) was 887 ± 74 ng/mL and the half-life was 3.6 ± 0.1 h. Moreover, the F in data set [2] was determined as 106 ± 30%. In addition, the Kp in data set [3] was found to be 0.27 ± 0.06. In addition, in the data set on Male Wistar rats [4] (10 mg/kg), the Inference entry is listed as “Active”; the “Exploration time mean ± S.E.M, Familiar object” value was 8.00 ± 2.88 s; the “Exploration time mean ± S.E.M, Novel object” value was 14.38 ± 1.62 s.

For the compound `N#CC1(c2ccccn2)CCN(Cc2cc(C(=O)O)c(=O)n3ccccc23)CC1` [PQCA, 1-{[4-cyano-4-(pyridine-2-yl)piperidin-1-yl]methyl}-4-oxo-4H-quinolizine-3-carboxylic acid], the “Selectivity for muscarinic M1 receptor over the other muscarinic receptor subtypes” value at muscarinic M1 receptor [6] is listed as “highly selective”. For the same compound, the “Efficacy in preclinical models of cognition” value in data set [7] (Psychopharmacology, 2013, 225(1), 21-30) was “efficacious”. The Gastrointestinal side effects entry in data set [7] (at doses equal to or less than a fivefold margin from the minimum effective dose required to improve cognition) was “no gastrointestinal side effects”.
